In one test the test system is IL-6. The experiment in a line: IL-6 inhibition in LPS-stimulated human peripheral blood mononuclear cells (HTRF). It counts as cell-based. The settings on record: Homo sapiens, PBMC; for EC50: huPBMCs, LPS 50 ng/mL, 22 hours, IL-6 HTRF; for inhibition at 10 µM: read-out: percent inhibition at 10 μM. The gist of the method:
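Fresh human PBMCs at 1×10e6 cells/mL in RPMI/1% FBS were stimulated with 50 ng/mL E. coli 0111:B4 LPS added 2 h after compound, then incubated 22 h at 37° C. Secreted IL-6 was measured by HTRF (665/620 nm ratio) after 3 h at room temperature. EC50 was taken from activity normalized to DMSO-treated cells.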
A general note: Time-resolved FRET reads energy transfer from a long-lived donor to a nearby acceptor.

The target in the next test is DYRK1A kinase (Homo sapiens (Human), UniProt Q13627). Nature of the test: DYRK1A kinase assay (Ser/Thr 18 peptide Z-lyte FRET). Format: biochemical. The settings on record: read-out: EC50 (method: IC50). The gist of the method: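 This Z-lyte FRET assay reads the coumarin/fluorescein emission ratio. Compounds were incubated with the reaction mixture for 1 h at room temperature, followed by development reagent for a further 1 h at room temperature, in duplicate.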

A further test has as its target GSK3β kinase (Homo sapiens (Human), UniProt P49841). The experiment in a line: GSK3β kinase assay (Ser/Thr 09 peptide Z-lyte FRET). The settings on record: read-out: EC50 (method: IC50). Format: biochemical. In a few lines:
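Non-radioactive Z-lyte FRET read-out, kinase activity expressed as coumarin/fluorescein emission ratio. Compounds incubated with the reaction mixture one hour at room temperature in duplicate, then development buffer added for another hour. IC50 from non-linear regression of dose-response curves.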

For test [1], the system named is primary human fibroblasts derived from IPF patients (LL29 cells). Nature of the test: Inhibition of the fibrotic process: αSMA staining in TGF-β1 treated LL29 fibroblasts. It counts as cell-based. The settings on record: Homo sapiens, Fibroblast, 96 h; LL29 cells, TGF-β1 20 ng/mL, 4 days, % αSMA positive cells. The gist of the method:
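LL29 fibroblasts from IPF patients, in F12 medium with 1% FBS, treated with TGF-β1 plus compound; TGF-β1 with DMSO as positive control, DMSO alone as negative control. After 4 days' incubation, SYTOX green nucleic acid stain added at 1 μM final, 30 min at room temperature.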

The test system of test [2] is Wnt activity (Sp5-Luc reporter in SW480 cells). The experiment in a line: Screening assay for Wnt activity: Sp5-Luc reporter gene assay in SW480 colon carcinoma cells. The settings on record: Homo sapiens, 36 to 48 hours. It counts as cell-based, human. In a few lines: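 SW480 colon carcinoma cells stably carrying a lentiviral luciferase reporter driven by an Sp5 promoter with eight TCF/LEF sites, plated at 4,000 cells/well in DMEM with 1% FBS. Compound exposure for 36–48 h at 37 °C, then luminescence read. Signals normalized to DMSO; EC50 from four-parameter nonlinear fit.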
In general terms: A reporter such as luciferase makes a cellular process visible.

In test [3] the test system is SW480 colon carcinoma cells. The experiment in a line: Cell viability assay (CellTiter-Glo) in SW480 colon carcinoma cells. The settings on record: Homo sapiens, 96 h, four days. Format: cell-based, human. The gist of the method: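 SW480 cells stably carrying an Sp5-promoter luciferase reporter were plated at 2,000 cells/well in DMEM with 1% FBS and treated with compound for four days at 37 °C. Viability was read as ATP luminescence with CellTiter-Glo after about 12 min; DMSO-treated wells served as controls.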

The EC50 is the concentration giving half of the maximal effect. A lower EC50 goes with higher potency in that assay. Usually IC50 stands for the concentration that inhibits the measured activity by half. Usually inhibition stands for the drop in the measured response relative to a control, in per cent.

Structures are written as SMILES.

Chain of GSK3β kinase (P49841 whole entry): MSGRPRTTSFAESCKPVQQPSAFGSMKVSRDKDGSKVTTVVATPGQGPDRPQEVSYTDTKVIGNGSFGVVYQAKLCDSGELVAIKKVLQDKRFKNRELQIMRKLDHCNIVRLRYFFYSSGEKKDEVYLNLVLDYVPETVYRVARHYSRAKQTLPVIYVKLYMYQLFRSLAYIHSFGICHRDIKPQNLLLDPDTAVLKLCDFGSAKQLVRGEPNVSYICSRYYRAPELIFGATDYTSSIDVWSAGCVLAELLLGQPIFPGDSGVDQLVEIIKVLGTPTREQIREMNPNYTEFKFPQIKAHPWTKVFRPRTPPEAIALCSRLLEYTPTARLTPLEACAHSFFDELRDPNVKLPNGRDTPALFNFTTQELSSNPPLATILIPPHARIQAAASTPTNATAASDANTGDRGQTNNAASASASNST

As to `O=C(Nc1ccc(F)cc1)c1n[nH]c2ccc(-c3cnn(C4CCNCC4)c3)cc12` [Compound 48, N-(4-Fluorophenyl)-5-(1-(piperidin-4-yl)-1H-pyrazol-4-yl)-1H-indazole-3-carboxamide], the EC50 is 5420 nM in the test with IL-6, 449 nM in test [1], 239 nM in test [2] and 354 nM in test [3]. For the same compound, the IC50 at DYRK1A kinase was determined as 23 nM; on GSK3β kinase it was 260 nM.

`O=C(Nc1ccc(F)cc1)c1n[nH]c2cc(F)c(-c3cnn(C4CCNCC4)c3)cc12` [Compound 49, 6-Fluoro-N-(4-fluorophenyl)-5-(1-(piperidin-4-yl)-1H-pyrazol-4-yl)-1H-indazole-3-carboxamide]: the concentration for a half-maximal effect (EC50) was 3730 nM with IL-6, 1010 nM in test [1], 256 nM in test [2] and 208 nM in test [3]. The half-inhibitory concentration (IC50) on DYRK1A kinase stood at 15 nM; at GSK3β kinase, 187 nM.

As for `O=C(Nc1ccc(Cl)cc1)c1n[nH]c2cc(F)c(-c3cnn(C4CCNCC4)c3)cc12` [Compound 50, N-(4-Chlorophenyl)-6-fluoro-5-(1-(piperidin-4-yl)-1H-pyrazol-4-yl)-1H-indazole-3-carboxamide], the EC50 in the test on IL-6 was determined as 6050 nM; in test [1], 1110 nM; in test [2], 1190 nM; in test [3] it was 648 nM. The figures for the IC50 at DYRK1A kinase and on GSK3β kinase were 34 nM and 476 nM, respectively.

As for `CN1CCC(n2cc(-c3cc4c(C(=O)Nc5ccc(F)cc5)n[nH]c4cc3F)cn2)CC1` [Compound 51, 6-Fluoro-N-(4-fluorophenyl)-5-(1-(1-methylpiperidin-4-yl)-1H-pyrazol-4-yl)-1H-indazole-3-carboxamide], the EC50 with IL-6 was found to be 2560 nM; in test [1], 816 nM; in test [2], 560 nM; in test [3], 305 nM. Besides, the IC50 at DYRK1A kinase was found to be 16 nM; on GSK3β kinase, 558 nM.

With `O=C(Nc1ccc(OC(F)F)cc1)c1n[nH]c2ccc(-c3cnn(C4CNC4)c3)cc12` [Compound 54, 5-(1-(Azetidin-3-yl)-1H-pyrazol-4-yl)-N-(4-(difluoromethoxy)phenyl)-1H-indazole-3-carboxamide], the EC50 with IL-6 is over 10000 nM; in test [1], 2920 nM; in test [2], 4380 nM; in test [3] it was over 10000 nM. Besides, in the test with IL-6, the inhibition at 10 µM was 9.7%. The figures for the IC50 on DYRK1A kinase and at GSK3β kinase were 244 nM and 2080 nM, respectively.

Consider `O=C(Nc1ccc(OC(F)F)cc1)c1n[nH]c2ccc(-c3cnn(C4CCNCC4)c3)cc12` [Compound 55, N-(4-(Difluoromethoxy)phenyl)-5-(1-(piperidin-4-yl)-1H-pyrazol-4-yl)-1H-indazole-3-carboxamide], for which the concentration giving a half-maximal response (EC50) in the test with IL-6 worked out at 3850 nM; in test [1], 236 nM; in test [2] it was 428 nM; in test [3], 1340 nM. The figures for the IC50 at DYRK1A kinase and on GSK3β kinase were 37 nM and 1230 nM, respectively.

Regarding `O=C(Nc1ccc(OC(F)F)cc1)c1n[nH]c2cc(F)c(-c3cnn(C4CCNCC4)c3)cc12` [Compound 56, N-(4-(Difluoromethoxy)phenyl)-6-fluoro-5-(1-(piperidin-4-yl)-1H-pyrazol-4-yl)-1H-indazole-3-carboxamide], the concentration giving a half-maximal response (EC50) in the test with IL-6 was determined as 2150 nM; in test [1], 1530 nM; in test [2] it was 376 nM; in test [3] it was 201 nM. For the same compound, the figures for the 50% inhibitory concentration (IC50) on DYRK1A kinase and on GSK3β kinase were 27 nM and 330 nM, respectively.

On to `CN1CCC(n2cc(-c3cc4c(C(=O)Nc5ccc(OC(F)F)cc5)n[nH]c4cc3F)cn2)CC1` [Compound 59, N-(4-(Difluoromethoxy)phenyl)-6-fluoro-5-(1-(1-methylpiperidin-4-yl)-1H-pyrazol-4-yl)-1H-indazole-3-carboxamide], for which the EC50 with IL-6 was 2590 nM; in test [1], 2540 nM; in test [2] it was 555 nM; in test [3], 327 nM. For the same compound, the IC50 amounted to 28 nM on DYRK1A kinase and 1290 nM at GSK3β kinase.

Turning to `O=C(Nc1ccc(OC(F)F)cc1)c1n[nH]c2ccc(-c3cnn(C4CCN(CCF)CC4)c3)cc12` [Compound 60, N-(4-(Difluoromethoxy)phenyl)-5-(1-(1-(2-fluoroethyl)piperidin-4-yl)-1H-pyrazol-4-yl)-1H-indazole-3-carboxamide], the EC50 in the test on IL-6 is 8980 nM; in test [1], 1280 nM; in test [2], 3850 nM; in test [3], 3730 nM. In addition, the IC50 on DYRK1A kinase is 1500 nM; at GSK3β kinase, over 10000 nM.

`O=C(Nc1ccc(OC(F)F)cc1)c1n[nH]c2ccc(-c3cnn(CC4CCNCC4)c3)cc12` [Compound 63, N-(4-(Difluoromethoxy)phenyl)-5-(1-(piperidin-4-ylmethyl)-1H-pyrazol-4-yl)-1H-indazole-3-carboxamide]: the 50% effective concentration (EC50) in the test with IL-6 was over 10000 nM; in test [1], 2030 nM; in test [2] it was 9440 nM; in test [3] it was 768 nM. Further, in the test on IL-6, the inhibition at 10 µM is 6.2%. Also, the half-inhibitory concentration (IC50) at DYRK1A kinase came to 767 nM; at GSK3β kinase, 2320 nM.

With `CN1CCC(c2ccc(NC(=O)c3n[nH]c4cc(F)c(-c5cnn(C)c5)cc34)cc2)CC1` [Compound 65, 6-Fluoro-5-(1-methyl-1H-pyrazol-4-yl)-N-(4-(1-methylpiperidin-4-yl)phenyl)-1H-indazole-3-carboxamide], the EC50 came out at 3180 nM with IL-6, 620 nM in test [1], 805 nM in test [2] and 1100 nM in test [3]. Moreover, the half-inhibitory concentration (IC50) on DYRK1A kinase turned out to be 4 nM; at GSK3β kinase it was 44 nM.

For the compound `CN1CCN(c2ccc(NC(=O)c3n[nH]c4cc(F)c(-c5cnn(C)c5)cc34)cc2)CC1` [Compound 66, 6-Fluoro-5-(1-methyl-1H-pyrazol-4-yl)-N-(4-(4-methylpiperazin-1-yl)phenyl)-1H-indazole-3-carboxamide], the concentration for a half-maximal effect (EC50) in the test with IL-6 amounted to 1280 nM; in test [1] it was 650 nM; in test [2], 953 nM; in test [3] it was 759 nM. In addition, the IC50 at DYRK1A kinase was 2 nM; on GSK3β kinase, 65 nM.

On to `Cn1cc(-c2ccc3[nH]nc(C(=O)Nc4ccc(CN5CCCC5)cc4)c3c2)cn1` [Compound 68, 5-(1-Methyl-1H-pyrazol-4-yl)-N-(4-(pyrrolidin-1-ylmethyl)phenyl)-1H-indazole-3-carboxamide], for which the EC50 is over 10000 nM with IL-6, 74 nM in test [1], 264 nM in test [2] and 360 nM in test [3]. For the same compound, the IC50 was determined as 1 nM on DYRK1A kinase and 6 nM at GSK3β kinase.

As to `Cn1cc(-c2cc3c(C(=O)Nc4ccc(CN5CCCC5)cc4)n[nH]c3cc2F)cn1` [Compound 69, 6-Fluoro-5-(1-methyl-1H-pyrazol-4-yl)-N-(4-(pyrrolidin-1-ylmethyl)phenyl)-1H-indazole-3-carboxamide], the EC50 with IL-6 came to 1320 nM; in test [1], 328 nM; in test [2] it was 308 nM; in test [3] it was 191 nM. The IC50 on DYRK1A kinase amounted to 2 nM; on GSK3β kinase, 20 nM.

Consider `CCn1cc(-c2ccc3[nH]nc(C(=O)Nc4ccc(CN5CCCC5)cc4)c3c2)cn1` [Compound 70, 5-(1-Ethyl-1H-pyrazol-4-yl)-N-(4-(pyrrolidin-1-ylmethyl)phenyl)-1H-indazole-3-carboxamide], for which the concentration giving a half-maximal response (EC50) is 1380 nM in the test with IL-6, 126 nM in test [1], 512 nM in test [2] and 518 nM in test [3]. In addition, the figures for the concentration for half-maximal inhibition (IC50) on DYRK1A kinase and at GSK3β kinase were 5 nM and 25 nM, respectively.

On to `CC(C)n1cc(-c2ccc3[nH]nc(C(=O)Nc4ccc(CN5CCCC5)cc4)c3c2)cn1` [Compound 71, 5-(1-Isopropyl-1H-pyrazol-4-yl)-N-(4-(pyrrolidin-1-ylmethyl)phenyl)-1H-indazole-3-carboxamide], for which the half-maximal effective concentration (EC50) was determined as 4800 nM in the test with IL-6, 322 nM in test [1], 1490 nM in test [2] and 1100 nM in test [3]. Besides, the half-maximal inhibitory concentration (IC50) turned out to be 25 nM at DYRK1A kinase and 169 nM on GSK3β kinase.

Regarding `O=C(Nc1ccc(CN2CCCC2)cc1)c1n[nH]c2ccc(-c3cnn(C4CC4)c3)cc12` [Compound 72, 5-(1-Cyclopropyl-1H-pyrazol-4-yl)-N-(4-(pyrrolidin-1-ylmethyl)phenyl)-1H-indazole-3-carboxamide], the EC50 with IL-6 turned out to be 1200 nM; in test [1], 242 nM; in test [2], 545 nM; in test [3] it was 228 nM. In addition, the IC50 stood at 6 nM at DYRK1A kinase and 40 nM at GSK3β kinase.

The record behind these values is US10934297B2, “5-heteroaryl substituted indazole-3-carboxamides and preparation and use thereof” (Samumed, LLC, priority 2018, dated 2021).
